From publication PMC4122966, “Novel VCP modulators mitigate major pathologies of rd10, a mouse model of retinitis pigmentosa” (Scientific Reports, 2014)

Legend:
HeLa cells = experiment: immunocytochemistry of laminin γ1 aggregation in tunicamycin-treated cells; format: cell-based; conditions: HeLa, Tm 0.5 μg/ml, 5 hours, 50 μM KUS
Description: Figure 4 KUSs and ATP each prevented a decrease of ATP levels and ameliorated ER stress in tunicamycin-treated cells. (a) Immunocytochemical analyses of HeLa cells by an anti-laminin γ1 antibody. HeLa cells were treated with 0.5 μg/ml of tunicamycin (Tm) for 5 hours in the presence of KUSs (50 μM), ATP (0.1, 0.3, and 1 mM), methylpyruvate (MePyr) (3 and 10 mM), or vehicle alone (DMSO). Then, cells were fixed and subjected to immunocytochemical analyses. Normally growing HeLa cells were also analyzed (Control). Scale bar, 10 μm. (b) Measurements of the relative amounts of ATP per cell. HeLa cells were treated with tunicamycin (Tm, 0.5 μg/ml) for 24 hours in the presence of KUSs (50 μM) or ATP (0.1 and 1 mM), or vehicle alone (DMSO), and were harvested. Then, ATP amounts from 1.5 × 10^5 cells were measured. * P < 0.05, ** P < 0.01. Error bars indicate SD. (c) Western blot analyses on CHOP. HeLa cells were treated with 0.5 μg/ml of tunicamycin for 5 hours in the presence of KUSs (50 μM), ATP (0.1, 0.3, and 1 mM), methylpyruvate (MePyr) (3 and 10 mM), or vehicle alone (-). Then, cells were harvested and subjected to western blot analyses. Actin served as a loading control. Complete scans of the different blots are presented in Supplementary Fig. 9.

[1] = tested on: whole cell soluble lysate of neuronally differentiated PC12 cells; experiment: total ATPase activity in clarified whole cell lysates; format: biochemical
Description: Figure 3 Effects of KUSs on ATPase activities, ATP levels, and acetyl-CoA levels. (a) Inhibition of ATPase activity in clarified whole cell lysates by KUS121, KUS187, and KUS94, but not KUS11. Total ATPase activities in clarified whole cell lysates from differentiated PC12 cells were measured in the absence and presence of KUSs. Relative ATPase activities are shown with values in the absence of KUS (D: DMSO) set at 100%. (b) HeLa cells were cultured in medium with low glucose (0.25 g/l) for 20 hours, with or without KUSs, and ATP levels were measured with luciferase assays. (c) HeLa cells were cultured in medium with low glucose (0.25 g/l) for 20 hours, with or without KUSs, and acetyl-CoA levels were measured. * P < 0.05, ** P < 0.01, *** P < 0.001 vs. DMSO control (Dunnett's test, n = 3).
We measured ATPase activities by modifying the molybdate assay, which was as described previously. In the assay, 1 μg of whole cell soluble lysate of neuronally differentiated PC12 cells, or 500 ng recombinant VCP protein, was incubated in 20 μl of the ATPase assay buffer (20 mM HEPES (pH 7.4), 50 mM KCl, 5 mM MgCl2) with 100 μM [γ-^32P]ATP (18.5 GBq/mmol) (PerkinElmer) at 37°C for 20 min. After incubation, the reaction was quenched by addition of 200 μl of 8% ice-cold trichloroacetic acid solution with 1 mM K2HPO4, and then 50 μl of solution A (3.75% ammonium molybdate, 0.02 M silicotungstic acid in 3 N H2SO4) and 300 μl of n-butyl acetate were added to the reaction. The samples were mixed well and centrifuged at 12,000 × g for 1 min. Then, 200 μl aliquots from the upper organic phases were taken and their radioactivity was determined with a liquid scintillation counter for β-radiation, which determined the amounts of ^32P released.

Structure (SMILES): Cc1cc(F)ccc1-c1ccc(/N=N/c2cc(S(=O)(=O)O)c3ccccc3c2N)cn1 [KUS121]
- aggregation of laminin γ1 (HeLa cells): clearly prevented the aggregation of laminin γ1
- lowering of total ATPase activity ([1]; 100 nM compound): approximately 20%
- lowering of total ATPase activity ([1]; 1 μM compound): ~40%
